Measured values as given in patent US11130769B2 (Prelude Therapeutics Incorporated, priority 2018, dated 2021).
Like-named read-outs stand apart in the source and are kept apart here.

Legend:
MCL-1 = MCL-1 (Homo sapiens (Human), UniProt Q07820); test: Cell free Mcl-1:Bim affinity assay (fluorescence polarization competition); assay type: binding; conditions: 15 nM MCL-1, 5 nM FITC-Bim, 1 hour at room temperature; class symbols; read-out: BIM_Ki
How it was run: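 Fluorescence polarization competition: 10-point 3-fold compound dilutions displaced 5 nM FITC-Bim from 15 nM MCL-1 over 1 h at room temperature. Ki was derived from the fitted IC50 using the Nikolovska-Coleska equation, with percent inhibition normalized to DMSO and positive controls.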

H929 cells = test: Cell viability assay (H929 10 FBS); assay type: cell-based; conditions: read-out: H929_10FBS IC50
How it was run: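 ATP-based luminescence (CellTiter-Glo or ATPlite 1 Step, 30-60 min at RT) gauged viability of H929 myeloma cells after 24 h compound treatment at 37 °C. Cells plated at 4000 per well in 10% FBS RPMI 1640 supplemented with pyruvate, HEPES and glucose.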

[1] = Homo sapiens, NCI-H929, 24 hours

Chain of MCL-1 (Q07820 whole entry): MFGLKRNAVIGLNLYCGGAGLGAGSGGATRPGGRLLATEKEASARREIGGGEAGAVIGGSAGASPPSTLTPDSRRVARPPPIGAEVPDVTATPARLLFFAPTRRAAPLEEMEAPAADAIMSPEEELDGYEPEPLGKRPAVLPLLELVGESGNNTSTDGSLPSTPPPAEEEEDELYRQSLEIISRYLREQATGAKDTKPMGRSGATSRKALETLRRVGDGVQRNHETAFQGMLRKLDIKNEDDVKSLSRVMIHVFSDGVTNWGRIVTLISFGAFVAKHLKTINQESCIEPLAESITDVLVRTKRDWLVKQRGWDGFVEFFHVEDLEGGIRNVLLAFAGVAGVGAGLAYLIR

Row | Ki (MCL-1) | IC50 (H929 cells; [1]) | SMILES | IC50 (H929 cells; 24 hours)
1 | 1 to 100 nM | > 1000 nM | CO[C@@H]1/C=C/C[C@H](C)CC(=O)NS(=O)(=O)c2ccc3c(c2)N(C[C@@H]2CC[C@H]21)C[C@@]1(CCCc2cc(Cl)ccc21)CO3 [Example 71, (3R,6R,7R,8E,11S,22S)-6′-Chloro-7-methoxy-11-methyl-15,15-dioxo-spiro[20-oxa-15-thia-1,14-diazatetracyclo[14.7.2.03,6.019,24]pentacosa-8,16(25),17,19(24)-tetraene-22,1′-tetralin]-13-one] | –
2 | 1 to 100 nM | > 1000 nM | CO[C@@H]1/C=C/CC[C@@H](C)C(=O)NS(=O)(=O)c2ccc3c(c2)N(C[C@@H]2CC[C@H]21)C[C@@]1(CCCc2cc(Cl)ccc21)CO3 [Example 72, (3R,6R,7R,8E,12R,22S)-6′-Chloro-7-methoxy-12-methyl-15,15-dioxo-spiro[20-oxa-15-thia-1,14-diazatetracyclo[14.7.2.03,6.019,24]pentacosa-8,16(25),17,19(24)-tetraene-22,1′-tetralin]-13-one] | –
3 | 1 to 100 nM | > 1000 nM | CO[C@@H]1/C=C/CCCCC(=O)NS(=O)(=O)c2ccc3c(c2)N(C[C@@H]2CC[C@H]21)C[C@@]1(CCCc2cc(Cl)ccc21)CO3 [Example 73, (3R,6R,7R,8E,23S)-6′-Chloro-7-methoxy-16,16-dioxo-spiro[21-oxa-16-thia-1,15-diazatetracyclo[15.7.2.03,6.020,25]hexacosa-8,17,19,25-tetraene-23,1′-tetralin]-14-one] | –
4 | < 1 nM | > 1000 nM | CO[C@@H]1/C=C/CCC(=O)NS(=O)(=O)c2ccc3c(c2)N(C[C@@H]2CC[C@H]21)C[C@@]1(CCCc2cc(Cl)ccc21)CO3 [Example 74, (3R,6R,7R,8E,21S)-6′-Chloro-7-methoxy-14,14-dioxo-spiro[19-oxa-14-thia-1,13-diazatetracyclo[13.7.2.03,6.018,23]tetracosa-8,15,17,23-tetraene-21,1′-tetralin]-12-one] | –
5 | 1 to 100 nM | > 1000 nM | CO[C@H]1/C=C/CCC(=O)NS(=O)(=O)c2ccc3c(c2)N(C[C@@H]2CC[C@H]21)C[C@@]1(CCCc2cc(Cl)ccc21)CO3 [Example 75, (3R,6R,7S,8E,21S)-6′-Chloro-7-methoxy-14,14-dioxo-spiro[19-oxa-14-thia-1,13-diazatetracyclo[13.7.2.0˜3,6.0˜18,23]tetracosa-8,15,17,23-tetraene-21,1′-tetralin]-12-one] | –
6 | 1 to 100 nM | > 1000 nM | CO[C@@H]1CCCCC(=O)NS(=O)(=O)c2ccc3c(c2)N(C[C@@H]2CC[C@H]21)C[C@@]1(CCCc2cc(Cl)ccc21)CO3 [Example 76, (3R,6R,7R,21S)-6′-Chloro-7-methoxy-14,14-dioxo-spiro[19-oxa-14-thia-1,13-diazatetracyclo[13.7.2.03,6.018,23]tetracosa-15,17,23-triene-21,1′-tetralin]-12-one] | –
7 | 1 to 100 nM | > 1000 nM | CO[C@H]1CCCCC(=O)NS(=O)(=O)c2ccc3c(c2)N(C[C@@H]2CC[C@H]21)C[C@@]1(CCCc2cc(Cl)ccc21)CO3 [Example 77, (3R,6R,7S,21S)-6′-Chloro-7-methoxy-14,14-dioxo-spiro[19-oxa-14-thia-1,13-diazatetracyclo[13.7.2.03,6.018,23]tetracosa-15,17,23-triene-21,1′-tetralin]-12-one] | –
8 | 1 to 100 nM | > 1000 nM | CO[C@@H]1/C=C/C[C@H](C)[C@@H](C)C(=O)NS(=O)(=O)c2ccc3c(c2)N(C[C@@H]2CC[C@H]21)C[C@@]1(CCCc2cc(Cl)ccc21)CO3 [Example 78, (3R,6R,7R,8E,1S,12R,22S)-6′-Chloro-7-methoxy-11,12-dimethyl-15,15-dioxo-spiro[20-oxa-15-thia-1,14-diazatetracyclo[14.7.2.03,6.019,24]pentacosa-8,16,18,24-tetraene-22,1′-tetralin]-13-one] | –
9 | 1 to 100 nM | > 1000 nM | CO[C@H]1/C=C/C[C@H](C)[C@@H](C)C(=O)NS(=O)(=O)c2ccc3c(c2)N(C[C@@H]2CC[C@H]21)C[C@@]1(CCCc2cc(Cl)ccc21)CO3 [Example 79, (3R,6R,7S,8E,11S,12R,22S)-6′-Chloro-7-methoxy-11,12-dimethyl-15,15-dioxo-spiro[20-oxa-15-thia-1,14-diazatetracyclo[14.7.2.03,6.019,24]pentacosa-8,16,18,24-tetraene-22,1′-tetralin]-13-one] | –
10 | 1 to 100 nM | > 1000 nM | CO[C@H]1/C=C/CCCC(=O)NS(=O)(=O)c2ccc3c(c2)N(C[C@@H]2CC[C@H]21)C[C@@]1(CCCc2cc(Cl)ccc21)CO3 [Example 80, (3R,6R,7S,8E,22S)-6′-Chloro-7-methoxy-15,15-dioxo-spiro[20-oxa-15-thia-1,14-diazatetracyclo[14.7.2.03,6.019,24]pentacosa-8,16(25),17,19(24)-tetraene-22,1′-tetralin]-13-one] | –

More lines, now with the values behind:

Row | SMILES | Ki (MCL-1) | IC50 (H929 cells; [1]) | IC50 (H929 cells; 24 hours)
11 | CC1(C)OC/C=C/[C@H](OC(=O)N[C@@H]2CCOC2)[C@@H]2CC[C@H]2CN2C[C@@]3(CCCc4cc(Cl)ccc43)COc3ccc(cc32)S(=O)(=O)NC1=O [Example 62, [(3R,6R,7S,8E,22S)-6′-Chloro-12,12-dimethyl-13,15,15-trioxo-spiro[11,20-dioxa-15-thia-1,14-diazatetracyclo[14.7.2.03,6.019,24]pentacosa-8,16,18,24-tetraene-22,1′-tetralin]-7-yl] N-[(3R)-tetrahydrofuran-3-yl]carbamate] | < 1 nM | < 500 nM | –
12 | CON(C)C(=O)O[C@H]1/C=C/COC(C)(C)C(=O)NS(=O)(=O)c2ccc3c(c2)N(C[C@@H]2CC[C@H]21)C[C@@]1(CCCc2cc(Cl)ccc21)CO3 [Example 63, [(3R,6R,7S,8E,22S)-6′-Chloro-12,12-dimethyl-13,15,15-trioxo-spiro[11,20-dioxa-15-thia-1,14-diazatetracyclo[14.7.2.03,6.019,24]pentacosa-8,16,18,24-tetraene-22,1′-tetralin]-7-yl] N-methoxy-N-methyl-carbamate] | < 1 nM | < 500 nM | –
13 | CN(C(=O)O[C@H]1/C=C/COC(C)(C)C(=O)NS(=O)(=O)c2ccc3c(c2)N(C[C@@H]2CC[C@H]21)C[C@@]1(CCCc2cc(Cl)ccc21)CO3)[C@@H]1CCOC1 [Example 64, [(3R,6R,7S,8E,22S)-6′-Chloro-12,12-dimethyl-13,15,15-trioxo-spiro[11,20-dioxa-15-thia-1,14-diazatetracyclo[14.7.2.03,6.019,24]pentacosa-8,16,18,24-tetraene-22,1′-tetralin]-7-yl] N-methyl-N-[(3R)-tetrahydrofuran-3-yl]carbamate] | < 1 nM | < 500 nM | –
14 | CN(C)CCO[C@H]1/C=C/COC(C)(C)C(=O)NS(=O)(=O)c2ccc3c(c2)N(C[C@@H]2CC[C@H]21)C[C@@]1(CCCc2cc(Cl)ccc21)CO3 [Example 65, (3R,6R,7S,8E,22S)-6′-Chloro-7-[2-(dimethylamino)ethoxy]-12,12-dimethyl-15,15-dioxo-spiro[11,20-dioxa-15-thia-1,14-diazatetracyclo[14.7.2.03,6.019,24]pentacosa-8,16,18,24-tetraene-22,1′-tetralin]-13-one] | < 1 nM | < 500 nM | –
15 | CC1(C)OC/C=C/[C@H](OCCN2CCCC2)[C@@H]2CC[C@H]2CN2C[C@@]3(CCCc4cc(Cl)ccc43)COc3ccc(cc32)S(=O)(=O)NC1=O [Example 66, (3R,6R,7S,8E,22S)-6′-Chloro-12,12-dimethyl-15,15-dioxo-7-(2-pyrrolidin-1-ylethoxy)spiro[11,20-dioxa-15-thia-1,14-diazatetracyclo[14.7.2.03,6.019,24]pentacosa-8,16,18,24-tetraene-22,1′-tetralin]-13-one] | < 1 nM | < 500 nM | –
16 | COC(=O)N1C/C=C/[C@@H](OC)[C@@H]2CC[C@H]2CN2C[C@@]3(CCCc4cc(Cl)ccc43)COc3ccc(cc32)S(=O)(=O)NC(=O)C2(CCC2)C1 [Example 67, (3R,6R,7R,8E,23S)-6′-Chloro-7-methoxy-11-methoxycarbonyl-13,13-(1,3-propylene)-16,16-dioxo-spiro[21-oxa-16-thia-1,11,15-triazatetracyclo[15.7.2.03,6.020,25]hexacosa[8,17(26),18,20(25)]tetraene-23,1′-tetralin]-14-one] | 1 to 100 nM | > 1000 nM | –
17 | CO[C@@H]1/C=C/CNCC(C)(C)C(=O)NS(=O)(=O)c2ccc3c(c2)N(C[C@@H]2CC[C@H]21)C[C@@]1(CCCc2cc(Cl)ccc21)CO3 [Example 68, (3R,6R,7R,8E,23S)-6′-Chloro-7-methoxy-13,13-dimethyl-16,16-dioxo-spiro[21-oxa-16-thia-1,11,15-triazatetracyclo[15.7.2.03,6.020,25]hexacosa[8,17(26),18,20(25)]tetraene-23,1′-tetralin]-14-one] | 1 to 100 nM | > 1000 nM | –
18 | CO[C@@H]1/C=C/CCC2(CC2)C(=O)NS(=O)(=O)c2ccc3c(c2)N(C[C@@H]2CC[C@H]21)C[C@@]1(CCCc2cc(Cl)ccc21)CO3 [Example 69, (3R,6R,7R,8E,22S)-6′-Chloro-7-methoxy-12,12-ethylene-15,15-dioxo-spiro[[20]oxa[15]thia-1,14-diazatetracyclo[14.7.2.03,6.019,24]pentacosa[8,16(25),17,19(24)]tetraene-22,1′-tetralin]-13-one] | 1 to 100 nM | – | > 1000 nM
19 | CO[C@@H]1/C=C\CCC2(CC2)C(=O)NS(=O)(=O)c2ccc3c(c2)N(C[C@@H]2CC[C@H]21)C[C@@]1(CCCc2cc(Cl)ccc21)CO3 [Example 70, (3R,6R,7R,8Z,22S)-6′-chloro-7-methoxy-12,12-ethylene-15,15-dioxo-spiro[20-oxa-15-thia-1,14-diazatetracyclo[14.7.2.03,6.019,24]pentacosa[8,16(25),17,19(24)]tetraene-22,1′-tetralin]-13-one] | 1 to 100 nM | – | > 1000 nM
